Laboratory results reported in patent publication US12240854B2, “TRAF 6 inhibitors” (Helmholtz Zentrum München - Deutsches Forschungszentrum für …, priority 2018, dated 2025).
“Also recorded” adds a separate entry of the source. Where two headings read alike, the source gives them in different places.

Columns and labels:
[1] = molecular target: T1, TRAF6-Ubc13 binding in HEK293T cells (Homo sapiens, UniProt Q9Y4K3); assay: Co-immunoprecipitation of HA-TRAF6 and Ubc13 in HEK 293T cells; assay type: cell-based
T1 construct: RING-Zincfinger1 (RZ1) domain (residues 50-159) of human TRAF6 wildtype; expressed in transfected cells; host or cells: HEK 293T
T1 sequence (Q9Y4K3 50-159): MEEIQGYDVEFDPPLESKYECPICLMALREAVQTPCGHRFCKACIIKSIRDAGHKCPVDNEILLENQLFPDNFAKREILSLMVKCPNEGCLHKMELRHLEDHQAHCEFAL
Description: To study the interaction of TRAF6 and Ubc13 in cells, 1×10^6 293T cells were seeded and after 18 hours cells were transfected with 1 μg pEF-HA empty or pEF-HA-TRAF6 RZ1 plasmid using the X-tremeGENE HP DNA transfection reagent (Roche). 6 hours upon transfection, cells were treated with compound or DMSO. After 42 hours further incubation, cells were harvested in Co-IP lysis buffer and HA-TRAF6 was immunoprecipitated with anti-HA affinity matrix (Roche). Binding of Ubc13 to TRAF6 was examined in Western Blot analysis.

[2] = molecular target: T2, TRAF6WTStrepII-Ubc13FH interaction (Homo sapiens, UniProt Q9Y4K3); assay: ALPHAScreen TRAF6-Ubc13 interaction assay; assay type: binding
T2 construct: RING-Zincfinger1 (RZ1) domain (residues 50-159) of human TRAF6 wildtype; made in house; host or cells: E. coli BL21 codon plus RIPL
T2 sequence (Q9Y4K3 with tags, fused parts or gaps): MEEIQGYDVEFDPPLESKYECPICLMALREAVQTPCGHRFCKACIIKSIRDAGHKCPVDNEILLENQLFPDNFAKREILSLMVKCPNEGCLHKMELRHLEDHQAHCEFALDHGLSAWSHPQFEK
Excerpt: In order to identify small molecules that specifically target the RZ1 domain of TRAF6 and thereby prevent its binding to Ubc13, the ALPHAScreen technology (PerkinElmer) was chosen to detect TRAF6WTStrepII-Ubc13FH interaction in High-Throughput-Screenings as well as Structure Activity Relationship (SAR) analysis.
For performance of an automated ALPHAScreen assay, all following components were pre-diluted in ALPHAScreen buffer (1×PBS, 0.5% BSA, 0.01% Tween-20). First, the TRAF6 protein (end concentration 100 nM, 30 μL volume) was added to 384-well-opti-plates involving the MultiFlo dispensing system (BioTek) followed by transfer of the compounds via the Sciclone G3 transfer station (PerkinElmer). After addition of Ubc13FH (end concentration 75 nM, 10 μL volume) with the MultiFlo system and incubation for one hour at room temperature, both beads (Strep-Tactin Alpha Donor beads and Nickel-Chelate acceptor beads; end concentrations 4 μg each, 10 μL volume each) were mixed and added using the MultiFlo system in subdued light. Read-out of the plates occurred after another hour of incubation at room temperature. Statistical parameters including the coefficient of variation, Z′ factor and signal window were calculated to determine the quality of the HTS campaign. To evaluate the efficacy of the compounds, ALPHAScreen units of compound-treated samples were referred to DMSO control treated samples. Thereby, the TRAF6D57K mutant served as the control for minimum signal and was included on every plate of the screening. Compounds that inhibited TRAF6WTStrepII-Ubc13FH by more than 25% were considered as actives. After elimination of ALPHAScreen frequent hitter compounds and His-tag frequent hitters (Schorpp, K., I. Rothenaigner, E. Salmina, et al., Identification of Small-Molecule Frequent Hitters from AlphaScreen High-Throughput Screens. J Biomol Screen, 2014. 19(5): p. 715-26), 178 compounds were defined as primary hits and were subsequently tested in five-point serial dilution assays (2.5-40 μM) in TRAF6WTStrepII-Ubc13FH ALPHAScreen experiments. Only compounds with dose-dependent effects on TRAF6WTStrepII-Ubc13FH (n=27) were taken for further research. For analog testing, all compounds were analyzed in ten-point titration (0.2-100 μM) in TRAF6WTStrepII-Ubc13FH ALPHAScreen experiments. In parallel, the compounds were tested in the ALPHAScreen TruHits Kit (PerkinElmer) to rule out unspecific interference with the ALPHAScreen technology.

SMILES	interaction of endogenous Ubc13 with HA-tagged TRAF6 (co-immunoprecipitation) [1]	further results
Cc1nn(-c2ccc3nnc(C)n3n2)c(C)c1CCC(=O)N1CCC(Cc2ccc(F)cc2)CC1 [HZM06-9, 1-(4-(4-fluorobenzyl)piperidin-1-yl)-3-(3,5-dimethyl-1-(3-methyl-[1,2,4]triazolo[4,3-b]pyridazin-6-yl)-1H-pyrazol-4-yl)propan-1-one]	also active in cells; also recorded: most active analogs	interaction of endogenous Ubc13 with HA-tagged TRAF6 (co-immunoprecipitation) ([1]; listed as HZM06-09): demonstrated inhibition of TRAF6-Ubc13 binding
Cc1nn(-c2ccc3nnc(C)n3n2)c(C)c1CCC(=O)N1CCC(c2ccccc2)CC1 [HZM06-6, 3-(3,5-dimethyl-1-(3-methyl-[1,2,4]triazolo[4,3-b]pyridazin-6-yl)-1H-pyrazol-4-yl)-1-(4-phenylpiperidin-1-yl)propan-1-one]	also active in cells	–
COc1cccc(CC2CCN(C(=O)CCc3c(C)nn(-c4ccc5nnc(C)n5n4)c3C)CC2)c1 [HZM06-8, 1-(4-(3-methoxybenzyl)piperidin-1-yl)-3-(3,5-dimethyl-1-(3-methyl-[1,2,4]triazolo[4,3-b]pyridazin-6-yl)-1H-pyrazol-4-yl)propan-1-one]	also active in cells; also recorded: most active analogs	interaction of endogenous Ubc13 with HA-tagged TRAF6 (co-immunoprecipitation) ([1]; listed as HZM06-08): demonstrated inhibition of TRAF6-Ubc13 binding
Cc1nn(-c2ccc3nnc(C)n3n2)c(C)c1CCC(=O)N1CCC(Cc2ccccn2)CC1 [HZM06-10, 3-(3,5-dimethyl-1-(3-methyl-[1,2,4]triazolo[4,3-b]pyridazin-6-yl)-1H-pyrazol-4-yl)-1-(4-((pyridin-2-yl)methyl)piperidin-1-yl)propan-1-one]	also active in cells	–
Cc1nn(-c2ccc3nnc(C)n3n2)c(C)c1CCC(=O)N1CCN(Cc2ccccc2)CC1 [HZM06-1, 1-(4-benzylpiperazin-1-yl)-3-(3,5-dimethyl-1-(3-methyl-[1,2,4]triazolo[4,3-b]pyridazin-6-yl)-1H-pyrazol-4-yl)propan-1-one]	also active in cells	–
Cc1nn(-c2ccc3nnc(C)n3n2)c(C)c1CCC(=O)N1CCC(Cc2ccccc2)C1 (stereo not shown) [HZM06-4, 1-(3-benzylpyrrolidin-1-yl)-3-(3,5-dimethyl-1-(3-methyl-[1,2,4]triazolo[4,3-b]pyridazin-6-yl)-1H-pyrazol-4-yl)propan-1-one]	also active in cells; also recorded: most active analogs	interaction of endogenous Ubc13 with HA-tagged TRAF6 (co-immunoprecipitation) ([1]; listed as HZM06-04): demonstrated inhibition of TRAF6-Ubc13 binding; inhibition of TRAF6-Ubc13 interaction in ALPHAScreen (in words) [2]: most prominent effect
COc1cccc(CN2CCN(C(=O)CCc3c(C)nn(-c4ccc5nnc(C)n5n4)c3C)CC2)c1 [HZM06-2, 1-(4-(3-methoxybenzyl)piperazin-1-yl)-3-(3,5-dimethyl-1-(3-methyl-[1,2,4]triazolo[4,3-b]pyridazin-6-yl)-1H-pyrazol-4-yl)propan-1-one]	also active in cells	–
Cc1nn(-c2ccc3nnc(C)n3n2)c(C)c1CCC(=O)N1CCC(c2ccccn2)CC1 [HZM06-7, 3-(3,5-dimethyl-1-(3-methyl-[1,2,4]triazolo[4,3-b]pyridazin-6-yl)-1H-pyrazol-4-yl)-1-(4-(pyridin-2-yl)piperidin-1-yl)propan-1-one]	also active in cells; also recorded: most active analogs	interaction of endogenous Ubc13 with HA-tagged TRAF6 (co-immunoprecipitation) ([1]; listed as HZM06-07): demonstrated inhibition of TRAF6-Ubc13 binding
